In patent US20230119894A1, “THERAPEUTIC OR PROPHYLACTIC METHOD FOR DIABETES USING COMBINATION MEDICINE” (Japan Tobacco Inc., priority 2019, published 2023):
Values joined by “and” are separate entries in the source; they are usually repeats but may differ in a detail not shown here. Identical values can stand only once. Marks after values point to notes of the source that are not given here.

What was measured:
[1] = tested on: Salmonella typhimurium TA1535; experiment: Ames test (reverse mutation test), TA1535
Procedure: (§1) Metabolites 1, 3, and 5 and Metabolites C to H were each tested herein. The purpose of this test is to evaluate the potential of each metabolite to induce reverse mutations in the standard strains of Salmonella typhimurium (TA98, TA1537, TA100, and TA1535) and Escherichia coli (WP2uvrA), in either the presence or absence of a rat liver metabolic activation system (S9 mix).
(§2) The solvent used herein was dimethyl sulfoxide (DMSO, 100 μL/plate).
(§3) The test was performed by the pre-incubation method with or without S9 mix. When the test was performed without S9 mix, sodium phosphate buffer solution (pH 7.4) was added.
(§4) 0.5 mL of S9 mix or 0.5 mL of 0.1 mol/L sodium phosphate buffer solution (pH 7.4), and 0.1 mL of the bacterial culture solution were added to a test tube containing 0.1 mL of the negative control formulation (DMSO alone), the metabolite, or the positive control formulation. The mixtures were pre-incubated at 37° C. for 20 minutes while shaking. After the pre-incubation period, 2 mL of top agar were added and the mixtures were vortex-mixed and seeded onto plates. Two plates per treatment were used. Each plate was incubated at 37±1° C. for 48 hours or more and the revertant colonies were counted. The mean number of revertant colonies for each treatment plate was then calculated. […] Evaluation was based on mean values with no statistical comparisons being used.

[2] = tested on: Salmonella typhimurium TA1537; experiment: Ames test (reverse mutation test), TA1537; settings: TA1537
Procedure: as §1, §2, §3, §4

[3] = tested on: Salmonella typhimurium TA98; experiment: Ames test (reverse mutation test), TA98; settings: TA98
Procedure: as §1, §2, §3, §4

[4] = tested on: Salmonella typhimurium TA100; experiment: Ames test (reverse mutation test), TA100; settings: TA100
Procedure: as §1, §2, §3, §4

Escherichia coli WP2uvrA = experiment: Ames test (reverse mutation test), WP2uvrA; type: cell-based; settings: WP2uvrA

Nc1ccc2cc3ccccc3cc2c1 [Example 2AA, 2-Aminoanthracene, reference compound]
Number of revertant colonies ([1]; S9 mix +, 2.0 μg/plate (positive control)): 223 and 146 and 250 | Number of revertant colonies ([2]; S9 mix +, 2 μg/plate (positive control)): 135 | Number of revertant colonies ([3]; S9 mix +, 0.5 μg/plate (positive control)): 289

Cl.Nc1c2ccccc2nc2ccccc12.O [Example 9AA, 9-Aminoacridine hydrochloride monohydrate, reference compound]
Number of revertant colonies ([2]; S9 mix −, 80 μg/plate (positive control)): 372

CC(C)(C)Oc1cc(F)cc(-c2cc(N)nn2C(F)(F)F)c1 [Metabolite 1]
Number of revertant colonies ([4]; S9 mix +, 185 μg/plate): 78* | Number of revertant colonies ([4]; S9 mix +, 556 μg/plate): 59* | Number of revertant colonies ([4]; S9 mix +, 1667 μg/plate): 50* | Number of revertant colonies ([4]; S9 mix +, 5000 μg/plate): 52* | Number of revertant colonies ([4]; S9 mix −, 185 μg/plate): 38* | Number of revertant colonies ([4]; S9 mix −, 556 μg/plate): 0* | Number of revertant colonies ([4]; S9 mix −, 1667 μg/plate): 0* | Number of revertant colonies ([4]; S9 mix −, 5000 μg/plate): 0* | Number of revertant colonies (Escherichia coli WP2uvrA; S9 mix +, 185 μg/plate): 16* | Number of revertant colonies (Escherichia coli WP2uvrA; S9 mix +, 556 μg/plate): 18* | Number of revertant colonies (Escherichia coli WP2uvrA; S9 mix +, 1667 μg/plate): 9* | Number of revertant colonies (Escherichia coli WP2uvrA; S9 mix +, 5000 μg/plate): 0* | Number of revertant colonies (Escherichia coli WP2uvrA; S9 mix −, 185 μg/plate): 15* | Number of revertant colonies (Escherichia coli WP2uvrA; S9 mix −, 556 μg/plate): 8* | Number of revertant colonies (Escherichia coli WP2uvrA; S9 mix −, 1667 μg/plate): 5* | Number of revertant colonies (Escherichia coli WP2uvrA; S9 mix −, 5000 μg/plate): 0* | Number of revertant colonies ([1]; S9 mix +, 185 μg/plate): 5* | Number of revertant colonies ([1]; S9 mix +, 556 μg/plate): 4* | Number of revertant colonies ([1]; S9 mix +, 1667 μg/plate): 4* | Number of revertant colonies ([1]; S9 mix +, 5000 μg/plate): 2* | Number of revertant colonies ([1]; S9 mix −, 185 μg/plate): 0* | Number of revertant colonies ([1]; S9 mix −, 556 μg/plate): 0* | Number of revertant colonies ([1]; S9 mix −, 1667 μg/plate): 0* | Number of revertant colonies ([1]; S9 mix −, 5000 μg/plate): 0* | Number of revertant colonies ([2]; S9 mix +, 185 μg/plate): 2* | Number of revertant colonies ([2]; S9 mix +, 556 μg/plate): 0* | Number of revertant colonies ([2]; S9 mix +, 1667 μg/plate): 0* | Number of revertant colonies ([2]; S9 mix +, 5000 μg/plate): 0* | Number of revertant colonies ([2]; S9 mix −, 185 μg/plate): 0* | Number of revertant colonies ([2]; S9 mix −, 556 μg/plate): 0* | Number of revertant colonies ([2]; S9 mix −, 1667 μg/plate): 0* | Number of revertant colonies ([2]; S9 mix −, 5000 μg/plate): 0* | Number of revertant colonies ([3]; S9 mix +, 185 μg/plate): 16* | Number of revertant colonies ([3]; S9 mix +, 556 μg/plate): 15* | Number of revertant colonies ([3]; S9 mix +, 1667 μg/plate): 13* | Number of revertant colonies ([3]; S9 mix +, 5000 μg/plate): 13* | Number of revertant colonies ([3]; S9 mix −, 185 μg/plate): 9* | Number of revertant colonies ([3]; S9 mix −, 556 μg/plate): 0* | Number of revertant colonies ([3]; S9 mix −, 1667 μg/plate): 0* | Number of revertant colonies ([3]; S9 mix −, 5000 μg/plate): 0*
